The text below walks through data of patent US20250019377A1 (JACOBIO PHARMACEUTICALS CO., LTD, priority 2021, published 2025).

As usually defined, the IC50 is the concentration that gives 50% inhibition.

The test system of assay [1] is p-ERK in SW620 cells (K-Ras G12V). In words: Phospho-ERK1/2(THR202/TYR204) HTRF assay, SW620. The settings on record: Homo sapiens, SW-620, 2 h, 2 hours incubation. In kind it is cell-based. (In general: Time-resolved FRET reads energy transfer from a long-lived donor to a nearby acceptor.)
The target in assay [2] is K-Ras WT (Homo sapiens, UniProt P01116). The assay can be described thus: SOS1 catalyzed nucleotide exchange assay (GDP form K-Ras), K-Ras WT. To be noted: read-out: K-Ras WT GDP Biochemical Activity (IC50).
Assay [3] relates to AsPC-1 cells (K-Ras G12D). In words: 2D cell growth inhibition assay, AsPC-1. In kind it is cell-based. To be noted: Homo sapiens, ASPC1, 144 h, AsPC-1, K-Ras G12D, 6 days, absolute IC50.
Assay [4] deals with AGS cells (K-Ras G12D). In words: 2D cell growth inhibition assay, AGS. In kind it is cell-based. The settings on record: Homo sapiens, 144 h, 6 days, absolute IC50.
Assay [5] deals with p-ERK in AGS cells (K-Ras G12D). The assay can be described thus: Phospho-ERK1/2(THR202/TYR204) HTRF assay, AGS. In kind it is cell-based. To be noted: Homo sapiens, 2 h, 2 hours incubation.
Assay [6] has as its system SW620 cells (K-Ras G12V). The assay can be described thus: 2D cell growth inhibition assay, SW620. The format is cell-based. The settings on record: Homo sapiens, SW-620, 144 h, 6 days, absolute IC50.
The target in assay [7] is T1, K-Ras G12V (Homo sapiens, UniProt P01116, G12V). In words: biochemical.
Assay [8] deals with T1, K-Ras G12V. The assay can be described thus: SOS1 catalyzed nucleotide exchange assay (GDP form K-Ras), K-Ras G12V. The settings on record: read-out: K-Ras G12V GDP Biochemical Activity (IC50).
The target in assay [9] is K-Ras G12D (Homo sapiens, UniProt P01116, G12D). In words: biochemical.
Chain of K-Ras G12D (P01116 1-169 isoform P01116-2 G12D): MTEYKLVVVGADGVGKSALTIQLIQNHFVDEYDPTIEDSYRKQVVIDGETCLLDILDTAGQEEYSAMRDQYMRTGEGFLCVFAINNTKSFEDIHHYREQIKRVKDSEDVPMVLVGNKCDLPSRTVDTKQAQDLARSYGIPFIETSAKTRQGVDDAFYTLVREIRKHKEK

T1 sequence (P01116 1-169 isoform P01116-2 G12V): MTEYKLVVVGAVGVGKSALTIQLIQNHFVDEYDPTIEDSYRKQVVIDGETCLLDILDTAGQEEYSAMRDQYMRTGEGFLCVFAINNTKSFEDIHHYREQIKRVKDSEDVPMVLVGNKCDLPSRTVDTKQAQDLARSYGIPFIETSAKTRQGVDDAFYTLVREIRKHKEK
Chain of K-Ras WT (P01116 1-169 isoform P01116-2): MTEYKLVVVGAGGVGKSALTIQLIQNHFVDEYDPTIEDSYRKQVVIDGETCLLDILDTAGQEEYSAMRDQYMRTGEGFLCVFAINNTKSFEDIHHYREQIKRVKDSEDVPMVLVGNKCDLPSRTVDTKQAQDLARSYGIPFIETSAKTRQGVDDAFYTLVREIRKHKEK

For the molecule `C#Cc1c(F)ccc2cc(O)cc(-c3c(Cl)cc4c(N5CCCOCC5)nc(OC[C@@]56CCCN5C[C@H](F)C6)nc4c3F)c12` [Compound 19, 4-(6-chloro-8-fluoro-2-(((2R,7aS)-2-fluorotetrahydro-1H-pyrrolizin-7a(5H)-yl)methoxy)-4-(1,4-oxazepan-4-yl)quinazolin-7-yl)-5-ethynyl-6-fluoronaphthalen-2-ol trifluoroacetic acid], the IC50 turned out to be 52.5 nM in [1]; 16.3 nM in [2]; 2370 nM in assay [3]; 5510 nM in assay [4]; 47.9 nM in [5]; 119 nM in assay [6]. Moreover, the figures for the IC50 in assay [7] and in [8] were 221 nM and 9.69 nM, respectively.
In the case of `C#Cc1c(F)ccc2cc(O)cc(-c3ncc4c(N5CCOCCC5C)nc(OC[C@@]56CCCN5C[C@H](F)C6)nc4c3F)c12` (stereo partly drawn) [Compound 22, 5-ethynyl-6-fluoro-4-(8-fluoro-2-(((2R,7aS)-2-fluorotetrahydro-1H-pyrrolizin-7a(5H)-yl)methoxy)-4-(5-methyl-1,4-oxazepan-4-yl)pyrido[4,3-d]pyrimidin-7-yl)naphthalen-2-ol trifluoroacetic acid], the IC50 in assay [1] turned out to be 13.2 nM; in assay [2] it was 4.05 nM; in [3] it was 782 nM; in assay [4], 175 nM; in assay [5] it was 70.7 nM; in [6] it was 64.3 nM. The IC50 in assay [7] worked out at 1440 nM; in [8] it was 3.2 nM.
`C#Cc1c(F)ccc2cc(O)cc(-c3ncc4c(N5CCOCC(N(C)C)C5)nc(OC[C@@]56CCCN5C[C@H](F)C6)nc4c3F)c12` (stereo partly drawn) [Compound 26, 4-(4-(6-(dimethylamino)-1,4-oxazepan-4-yl)-8-fluoro-2-(((2R,7aS)-2-fluorotetrahydro-1H-pyrrolizin-7a(5H)-yl)methoxy)pyrido[4,3-d]pyrimidin-7-yl)-5-ethynyl-6-fluoronaphthalen-2-ol]: the values for the IC50 in assay [2], in assay [7] and in [8] were 4.72 nM, 4150 nM and 5.77 nM, respectively.
On to `C#Cc1c(F)ccc2cc(O)cc(-c3ncc4c(N5CC(F)COCC5C)nc(OC[C@@]56CCCN5C[C@H](F)C6)nc4c3F)c12` (stereo partly drawn) [Compound 31, 5-ethynyl-6-fluoro-4-(8-fluoro-4-(6-fluoro-3-methyl-1,4-oxazepan-4-yl)-2-(((2R,7aS)-2-fluorotetrahydro-1H-pyrrolizin-7a(5H)-yl)methoxy)pyrido[4,3-d]pyrimidin-7-yl)naphthalen-2-ol], for which the IC50 came out at 12.8 nM in assay [1]; 2.61 nM in [2]; 60.9 nM in [3]; 5.92 nM in [4]; 3.62 nM in [5]; 22.6 nM in assay [6]. Also, the IC50 in assay [7] was 49.1 nM; in [8], 2.47 nM.
With `C#Cc1c(F)ccc2cc(OC(=O)[C@H](Cc3c[nH]c4ccccc34)NC(C)=O)cc(-c3ncc4c(N5CCCOCC5)nc(OC[C@@]56CCCN5C[C@H](F)C6)nc4c3F)c12` [Compound 44, 5-ethynyl-6-fluoro-4-(8-fluoro-2-(((2R,7aS)-2-fluorotetrahydro-1H-pyrrolizin-7a(5H)-yl)methoxy)-4-(1,4-oxazepan-4-yl)pyrido[4,3-d]pyrimidin-7-yl)naphthalen-2-yl acetyl-L-tryptophanate trifluoroacetic acid], the IC50 in assay [9] is 1.46 nM; in [8] it was 0.862 nM.
In the case of `C#Cc1c(F)ccc2cc(OC(=O)/C=C/c3ccccc3)cc(-c3ncc4c(N5CCCOCC5)nc(OC[C@@]56CCCN5C[C@H](F)C6)nc4c3F)c12` [Compound 48, 5-ethynyl-6-fluoro-4-(8-fluoro-2-(((2R,7aS)-2-fluorotetrahydro-1H-pyrrolizin-7a(5H)-yl)methoxy)-4-(1,4-oxazepan-4-yl)pyrido[4,3-d]pyrimidin-7-yl)naphthalen-2-yl cinnamate trifluoroacetic acid], the IC50 in assay [9] was found to be 5.86 nM; in [8], 4.32 nM.
With `C#Cc1c(F)ccc2cc(OC(=O)N(C)CCNC)cc(-c3ncc4c(N5CCCOCC5)nc(OC[C@@]56CCCN5C[C@H](F)C6)nc4c3F)c12` [Compound 54, 5-ethynyl-6-fluoro-4-(8-fluoro-2-(((2R,7aS)-2-fluorotetrahydro-1H-pyrrolizin-7a(5H)-yl)methoxy)-4-(1,4-oxazepan-4-yl)pyrido[4,3-d]pyrimidin-7-yl)naphthalen-2-yl methyl(2-(methylamino)ethyl)carbamate trifluoroacetic acid], the IC50 in assay [9] was 1.01 nM.
For the molecule `C#Cc1c(F)ccc2cc(OC(=O)C(c3ccccc3)N3CCCCC3)cc(-c3ncc4c(N5CCCOCC5)nc(OC[C@@]56CCCN5C[C@H](F)C6)nc4c3F)c12` (stereo partly drawn) [Compound 55, 5-ethynyl-6-fluoro-4-(8-fluoro-2-(((2R,7aS)-2-fluorotetrahydro-1H-pyrrolizin-7a(5H)-yl)methoxy)-4-(1,4-oxazepan-4-yl)pyrido[4,3-d]pyrimidin-7-yl)naphthalen-2-yl 2-phenyl-2-(piperidin-1-yl)acetate], the results for the half-maximal inhibitory concentration (IC50) in assay [9] and in [8] were 1.35 nM and 2.12 nM, respectively.
For `C#Cc1c(F)ccc2cc(OS(=O)(=O)c3ccc([N+](=O)[O-])cc3)cc(-c3ncc4c(N5CCCOCC5)nc(OC[C@@]56CCCN5C[C@H](F)C6)nc4c3F)c12` [Compound 56, 5-ethynyl-6-fluoro-4-(8-fluoro-2-(((2R,7aS)-2-fluorotetrahydro-1H-pyrrolizin-7a(5H)-yl)methoxy)-4-(1,4-oxazepan-4-yl)pyrido[4,3-d]pyrimidin-7-yl)naphthalen-2-yl 4-nitrobenzenesulfonate trifluoroacetic acid] the same measures were 4.69 nM and 3.91 nM.
As to `C#Cc1c(F)ccc2cc(OC(=O)NCC)cc(-c3ncc4c(N5CCCOCC5)nc(OC[C@@]56CCCN5C[C@H](F)C6)nc4c3F)c12` [Compound 57, 5-ethynyl-6-fluoro-4-(8-fluoro-2-(((2R,7aS)-2-fluorotetrahydro-1H-pyrrolizin-7a(5H)-yl)methoxy)-4-(1,4-oxazepan-4-yl)pyrido[4,3-d]pyrimidin-7-yl)naphthalen-2-yl ethylcarbamate trifluoroacetic acid], the IC50 in assay [9] came to 5.39 nM; in assay [8], 9.28 nM.
For the molecule `C#Cc1c(F)ccc2cc(O)cc(-c3ncc4c(N5CCCOCC5)nc(OCC56CCCN5CC(N(C)C)C6)nc4c3F)c12` (centres unmarked) [Compound 83], the IC50 came out at 8.04 nM in [2], 343 nM in [7] and 3.11 nM in assay [8].
Turning to `C#Cc1c(F)ccc2cc(O)cc(-c3nc(C)c4c(N5CCCOCC5)nc(OC[C@@]56CCCN5C[C@H](F)C6)nc4c3F)c12` [Compound 121, 5-ethynyl-6-fluoro-4-(8-fluoro-2-(((2R,7aS)-2-fluorotetrahydro-1H-pyrrolizin-7a(5H)-yl)methoxy)-5-methyl-4-(1,4-oxazepan-4-yl)pyrido[4,3-d]pyrimidin-7-yl) naphthalen-2-ol], the IC50 in assay [1] was 34.8 nM; in [3], 320 nM; in assay [4] it was 25.4 nM; in assay [5], 5.47 nM; in assay [6], 91 nM; in assay [7] it was 140 nM. Further, the IC50 in [8] is 3.01 nM.
`C#Cc1c(F)ccc2cc(O)cc(-c3nc(O)c4c(N5CCCOCC5)nc(OC[C@@]56CCCN5C[C@H](F)C6)nc4c3F)c12` [Compound 123, 7-(8-ethynyl-7-fluoro-3-hydroxynaphthalen-1-yl)-8-fluoro-2-(((2R,7aS)-2-fluoro-tetrahydro-1H-pyrrolizin-7a(5H)-yl)methoxy)-4-(1,4-oxazepan-4-yl)pyrido[4,3-d] pyrimidin-5-ol]: the IC50 in assay [1] turned out to be 803 nM; in assay [3], 2800 nM; in [4] it was 8.51 nM; in assay [5], 517 nM; in assay [6], 525 nM; in [7], 156 nM. For the same molecule, the IC50 in assay [8] came to 2.49 nM.
Consider `C#Cc1c(F)ccc2cc(O)cc(-c3ncc4c(N5CCOC/C(=C/C)C5)nc(OC[C@@]56CCCN5C[C@H](F)C6)nc4c3F)c12` [Compound 124, 4-(4-((E)-6-ethylidene-1,4-oxazepan-4-yl)-8-fluoro-2-(((2R,7aS)-2-fluorotetrahydro-1H-pyrrolizin-7a(5H)-yl)methoxy)pyrido [4,3-d]pyrimidin-7-yl)-5-ethynyl-6-fluoro-naphthalen-2-ol], for which the half-inhibitory concentration (IC50) in assay [1] stood at 21.8 nM; in assay [2], 5.02 nM; in [3], 784 nM; in [4], 80.8 nM; in [5] it was 34.2 nM; in assay [6], 45.7 nM. In addition, the half-maximal inhibitory concentration (IC50) in assay [7] is 805 nM; in [8], 2.57 nM.
Consider `C#Cc1c(F)ccc2cc(O)cc(-c3ncc4c(N5CCOCC(C(F)(F)F)C5)nc(OC[C@@]56CCCN5C[C@H](F)C6)nc4c3F)c12` (stereo partly drawn) [Compound 125, 5-ethynyl-6-fluoro-4-(8-fluoro-2-(((2R,7aS)-2-fluorotetrahydro-1H-pyrrolizin-7a(5H)-yl)methoxy)-4-(6-(trifluoromethyl)-1,4-oxazepan-4-yl)pyrido[4,3-d]pyrimidin-7-yl)naphthalen-2-ol], for which the IC50 was 22.5 nM in assay [1]; 2.16 nM in [2]; 124 nM in assay [3]; 18.4 nM in [4]; 9.51 nM in assay [5]; 31.6 nM in [6]. In addition, the IC50 in assay [7] was found to be 286 nM; in assay [8], 3.35 nM.
